# Measured values: article PMC6344527, “Toxicity and possible mechanisms of action of honokiol from Magnolia denudata seeds against four mosquito species” (Scientific Reports, 2019)
# Where two headings read alike, the source gives them in different places.
# Legend:
# larval Ae. aegypti = test system: larval Ae. aegypti; parameters: method as in PMID 23676010; conditions: cited from earlier work
# [1] = test system: third-instar larvae of insecticide-susceptible Culex pipiens pallens; experiment: contact mortality bioassay, 24 h exposure; assay type: in vivo; conditions: for LC50: Culex pipiens, 24 h; for LC50 / LC90 (mg/L) (95% CI) / LC50 (mg/L) (95% CI): 24 h exposure
# Procedure: (§1) A contact mortality bioassay[25] was used to evaluate the toxicity of all compounds against third-instar larvae of the four mosquito species. Each test compound in methanol was suspended in DW with Triton X-100 (20 µL/L). Groups of 20 mosquito larvae were separately placed into paper cups (270 mL) containing each compound solution (250 mL). […] Negative controls consisted of a methanol–Triton X-100 solution in DW.
# (§2) Treated and control (methanol–Triton X-100 solution only) larvae were maintained under the same conditions as those used for colony maintenance without providing food. Larval mortalities were determined 24 h post-treatment. […] All treatments were performed three times using 20 larvae per replicate.
# (§3) The concentration of the test compounds required to produce 50% AChE inhibitory activity (IC50) was determined using the SAS 9.13 program (Cary: SAS Institute; 2014). Concentration-mortality data were subjected to probit analysis using the SAS 9.13 program. […] Statistical analyses were performed using the SAS 9.13 program. Multiple linear regression and correlation analysis were performed using the SPSS 24 program (Armonk: IBM Corp.; 2016).
# [2] = test system: third-instar larvae of insecticide-susceptible Aedes aegypti; experiment: contact mortality bioassay, 24 h exposure; assay type: in vivo; conditions: for LC50: Aedes aegypti, 24 h; for LC50 / LC90 (mg/L) (95% CI) / LC50 (mg/L) (95% CI): 24 h exposure
# Procedure: as §1, §2, §3
# [3] = molecular target: acetylcholinesterase (AChE) from third-instar Ae. aegypti larvae (Aedes aegypti, UniProt A4GND7); experiment: acetylcholinesterase inhibition assay; assay type: biochemical; conditions: based on IC50 values
# Sequence of acetylcholinesterase (AChE) from third-instar Ae. aegypti larvae (A4GND7 37-679): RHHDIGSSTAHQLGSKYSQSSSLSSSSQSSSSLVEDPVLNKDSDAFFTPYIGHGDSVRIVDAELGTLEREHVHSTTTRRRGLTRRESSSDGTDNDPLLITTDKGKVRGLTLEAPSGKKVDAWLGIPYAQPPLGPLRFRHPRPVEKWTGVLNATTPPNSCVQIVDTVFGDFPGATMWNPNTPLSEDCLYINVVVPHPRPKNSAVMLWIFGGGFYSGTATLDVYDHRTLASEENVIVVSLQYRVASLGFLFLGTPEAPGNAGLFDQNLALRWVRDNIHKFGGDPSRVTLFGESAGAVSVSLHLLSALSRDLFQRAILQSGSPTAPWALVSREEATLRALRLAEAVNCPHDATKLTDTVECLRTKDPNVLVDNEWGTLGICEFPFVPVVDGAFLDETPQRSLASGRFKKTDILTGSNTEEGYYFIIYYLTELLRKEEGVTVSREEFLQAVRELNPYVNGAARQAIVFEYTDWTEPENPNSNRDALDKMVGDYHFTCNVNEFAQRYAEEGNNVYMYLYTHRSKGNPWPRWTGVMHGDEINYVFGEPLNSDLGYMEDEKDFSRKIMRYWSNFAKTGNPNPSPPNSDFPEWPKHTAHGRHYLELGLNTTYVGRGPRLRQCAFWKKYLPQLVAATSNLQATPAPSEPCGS
# Procedure: The in vitro AChE inhibitory activity of the test compounds was assessed according to the method of Perumalsamy et al.[42]. Third-instar Ae. aegypti larvae were used in all experiments. Whole bodies of 50 larvae were homogenized in 1 mL of ice-cold 0.1 M phosphate buffer (pH 8.0) using a glass tissue homogenizer. After filtering through cheesecloth, the homogenate was centrifuged at 1,000 × g at 4 °C for 5 min. The supernatant was used directly as the enzyme source for AChE. The protein levels were determined using the Bradford Protein Assay Kit (Bio-Rad Laboratories, Hercules, CA, USA) using BSA as the standard. The reaction mixture consisted of 50 µL of the crude enzyme preparation (4.3–4.8 µg protein equivalents), 150 µL of 0.1 M phosphate buffer, 20 µL of 3 mM DTNB in phosphate buffer (pH 7.0), and 1 µL of various concentrations of each test compound in ethanol. The reaction mixture was incubated at 30 °C for 5 min, and 20 µL of 32 mM ATChI was then added to the mixture. After incubation for 30 min, the reaction was terminated by adding 20 µL of 5 mM eserine salicylate. Absorbance was recorded at 412 nm using a VersaMax microplate reader (Molecular Devices, Sunnyvale, CA, USA). […] The results are expressed as the means ± standard errors (SEs) of triplicate samples from three independent experiments.
# as §3
# AaAQP4 = test system: AaAQP4; parameters: method as in PMID 24260359; conditions: larval Ae. aegypti anal gills; cited from earlier work
# AaV-type H^+-ATPase = test system: AaV-type H^+-ATPase; parameters: method as in PMID 24260359; conditions: larval Ae. aegypti; cited from earlier work
# [4] = test system: whole-body homogenate from third-instar Aedes aegypti larvae (adenylate cyclase activity); experiment: determination of cyclic AMP levels (octopamine-sensitive adenylate cyclase activity); assay type: biochemical; conditions: 100 μM; compared with control group / octopamine
# Procedure: The method of Perumalsamy et al.[42] was used to assess the in vitro octopamine-sensitive adenylate cyclase activity of the test compounds. In brief, whole bodies of 75 Ae. aegypti larvae (106.2 mg) were homogenized in 500 µL of 2 mM Tris-maleate buffer (pH 7.4) containing 0.8 mM ethylene glycol tetraacetic acid (EGTA). The adenylate cyclase activity was determined using the cAMP Biotrak Enzymeimmunoassay system according to the manufacturer’s protocol. The assay was conducted in a total volume of 100 µL containing 80 mM Tris-maleate buffer, 5 mM theophylline, 2 mM MgSO4, 0.5 mM adenosine triphosphate (ATP), 0.2 mM EGTA, 50 µL of whole-body homogenate (equivalent to 4.12 µg protein), and 1 µL of the test compounds in Tris-maleate buffer containing 0.2% ethanol. After incubation at 20 °C for 5 min, the reaction was initiated by addition of ATP. Incubation was performed at 30 °C for 3 min in a shaking water bath. The reaction was stopped by boiling for 2 min, and then, the assay tube was cooled and centrifuged at 8,000 × g for 10 min. Fifty microliters of the supernatant were assayed for cAMP levels.
# Polystyrene microplates (1 strip of 8 wells) coated with a goat anti-mouse polyclonal antibody were used. Fifty microliters of a mouse monoclonal antibody solution were added to each well except for the blank wells (or the nonspecific binding wells). The wells covered with the adhesive strip were incubated at 25 °C for 1 h in a shaking incubator (480 rpm). After washing with 400 µL of wash buffer four times, 50 μL of the two neolignan samples for cAMP determination and cAMP standard were added to wells. Control, blank (nonspecific binding), and zero standard wells were supplemented with 50 μL of a diluent RD5-55 buffer. […] The optical densities at 450 and 540 nm were determined using the microplate reader described above. The readings at 540 nm were subtracted from the readings at 450 nm. The cAMP concentrations are expressed as nmol/µg protein. The results are expressed as the means ± SEs of triplicate samples from three independent experiments.
# Larvae of An. sinensis = test system: Larvae of An. sinensis; parameters: method as in PMID 26085316; conditions: An. sinensis larvae compared with Ae. aegypti larvae; cited from earlier work
# [5] = test system: third-instar larvae of insecticide-resistant Anopheles sinensis; experiment: contact mortality bioassay, 24 h exposure; assay type: in vivo; conditions: for LC50: Anopheles sinensis, read-out: LC50 (mg/L) (95% CI); for Slope ± SE: probit slope
# Procedure: as §1, §2, §3
# [6] = test system: third-instar larvae of insecticide-susceptible Aedes albopictus; experiment: contact mortality bioassay, 24 h exposure; assay type: in vivo; conditions: for LC50: Aedes albopictus, read-out: LC50 (mg/L) (95% CI); for Slope ± SE: probit slope
# Procedure: as §1, §2, §3
# mosquito species larvae = conditions: flavonoids and fatty acids; cited from earlier work
# [7] = test system: larvae of four mosquito species (Cx. pipiens pallens, Ae. aegypti, Ae. albopictus, and An. sinensis); experiment: contact mortality bioassay, range over four mosquito species; assay type: in vivo; conditions: 24 h
# Procedure: as §1, §2, §3
# [8] = Table 5, larvae resistant to deltamethrin and temephos, 24 h exposure
# [9] = Table 2, KS-CP strain, read-out: LC50 (mg/L) (95% CI)
# [10] = Table 2, KS-CP strain, listed as Pure palmitic acid
# [11] = Table 3, read-out: LC50 (mg/L) (95% CI)
# [12] = Table 3, listed as Pure palmitic acid
# [13] = Table 3, listed as Pure linoleic acid
structure (smiles),measurement,setting,value
Oc1ccccc1 [Phenol],LC50,larval Ae. aegypti,194 µg/mL
same,LC50,"[1]; Table 6, structure-activity series, read-out: LC50 (mg/L) (95% CI)",41.7 mg/L
same,LC90 (mg/L) (95% CI),"[1]; Table 6, structure-activity series",185.1 (133.5–306.6) mg/L
same,LC50,"[2]; Table 7, structure-activity series, read-out: LC50 (mg/L) (95% CI)",43.2 mg/L
same,LC90 (mg/L) (95% CI),"[2]; Table 7, structure-activity series",207.1 (145.1–363.6) mg/L
same,AChE inhibitory activity (in words),[3],lowest of all of the compounds that were examined
CCCCC/C=C/C=C/C(=O)NCC(C)C [pellitorine],AaAQP4 expression levels,AaAQP4,inhibited the AaAQP4 expression levels
same,expression levels of the gene encoding AaV-type H^+-ATPase,AaV-type H^+-ATPase,slight decreases
"NCC(O)c1ccc(O)cc1 (centres unmarked) [octopamine, reference compound]",cAMP levels,[4],did not differ significantly
CC1(C)[C@H](C(=O)O[C@H](C#N)c2cccc(Oc3ccccc3)c2)[C@@H]1C=C(Br)Br [deltamethrin],relative susceptibility ratio (RSR),Larvae of An. sinensis,611
"COP(=S)(OC)Oc1ccc(Sc2ccc(OP(=S)(OC)OC)cc2)cc1 [Temephos, temephos, reference compound]",LC50,"[1]; read-out: LC50 (mg/L) (95% CI), Table 2, KS-CP strain",0.0162 mg/L
same,LC90 (mg/L) (95% CI),"[1]; Table 2, KS-CP strain",0.0749 (0.0551–0.1177) mg/L
same,LC50,"[2]; read-out: LC50 (mg/L) (95% CI), Table 3",0.0125 mg/L
same,LC90 (mg/L) (95% CI),[2]; Table 3,0.0658 (0.0479–0.1059) mg/L
same,LC50,[5]; 24 h,0.4 mg/L
same,LC90 (mg/L) (95% CI),[5]; [8],1.39 (1.05–2.13) mg/L
same,Slope ± SE,[5]; [8],2.2 ± 0.15
same,LC50,[6]; 24 h,0.0132 mg/L
same,LC90 (mg/L) (95% CI),"[6]; Table 4, 24 h exposure",0.0778 (0.0547–0.1343) mg/L
same,Slope ± SE,"[6]; Table 4, 24 h exposure",1.6 ± 0.21
same,relative susceptibility ratio (RSR),Larvae of An. sinensis,29
Cc1ccc(C(C)C)cc1O [carvacrol],LC50,larval Ae. aegypti,69 µg/mL
"CCCCCCCCCCCCCCCC(=O)O [Palmitic acid, hexadecanoic acid]",LC50,mosquito species larvae,34.50 to 42.96 µg/mL
same,LC50,[1]; [9],32.6 mg/L
same,LC90 (mg/L) (95% CI),"[1]; Table 2, KS-CP strain, listed as Natural palmitic acid",112.3 (88.96–156.2) mg/L
same,LC50 (mg/L) (95% CI),[1]; [10],34.92 (29.48–40.76) mg/L
same,LC90 (mg/L) (95% CI),[1]; [10],119.3 (94.38–166.4) mg/L
same,LC50,[2]; [11],33.5 mg/L
same,LC90 (mg/L) (95% CI),"[2]; Table 3, listed as Natural palmitic acid",129.3 (99.59–189.2) mg/L
same,LC50 (mg/L) (95% CI),[2]; [12],36.49 (29.30–44.83) mg/L
same,LC90 (mg/L) (95% CI),[2]; [12],204.1 (139.4–378.1) mg/L
same,LC50,[5]; [8],47.6 mg/L
same,LC90 (mg/L) (95% CI),[5]; [8],192.8 (148.1–282.2) mg/L
same,Slope ± SE,[5]; [8],2.1 ± 0.22
same,LC50,"[6]; Table 4, 24 h exposure",36.9 mg/L
same,LC90 (mg/L) (95% CI),"[6]; Table 4, 24 h exposure",135.1 (104.3–196.9) mg/L
same,Slope ± SE,"[6]; Table 4, 24 h exposure",3.1 ± 0.38
same,LC50,[7],32.6 to 47.6 µg/mL
COP(=S)(OC)Oc1ccc(SC)c(C)c1 [fenthion],relative susceptibility ratio (RSR),Larvae of An. sinensis,11
"CCCCC/C=C\C/C=C\CCCCCCCC(=O)O [Linoleic acid, (9Z,12Z)-9,12-octadecadienoic acid]",LC50,[1]; [9],6.97 mg/L
same,LC90 (mg/L) (95% CI),"[1]; Table 2, KS-CP strain, listed as Natural linoleic acid",19.41 (15.94–26.34) mg/L
same,LC50 (mg/L) (95% CI),"[1]; Table 2, KS-CP strain, listed as Pure linoleic acid",8.36 (6.09–10.40) mg/L
same,times less toxic than temephos,[1]; from 24 h LC50 values,430 times
same,LC50,[2]; [11],7.19 mg/L
same,LC90 (mg/L) (95% CI),"[2]; Table 3, listed as Natural linoleic acid",27.04 (20.52–43.96) mg/L
same,LC50 (mg/L) (95% CI),[2]; [13],7.34 (5.58–8.92) mg/L
same,LC90 (mg/L) (95% CI),[2]; [13],29.70 (23.19–43.79) mg/L
same,times less toxic than temephos,[2]; from 24 h LC50 values,575 times
same,LC50,[5]; [8],7.5 mg/L
same,LC90 (mg/L) (95% CI),[5]; [8],16.04 (14.05–19.06) mg/L
same,Slope ± SE,[5]; [8],3.9 ± 0.56
same,LC50,"[6]; Table 4, 24 h exposure",7.28 mg/L
same,LC90 (mg/L) (95% CI),"[6]; Table 4, 24 h exposure",27.81 (20.95–46.02) mg/L
same,times less toxic than temephos,[6]; from 24 h LC50 values,552 times
same,Slope ± SE,"[6]; Table 4, 24 h exposure",4.4 ± 0.59
same,LC50,[7],6.97 to 7.5 µg/mL
